Laboratory results published in US4089947A, “Antibiotic compositions containing validamycin compounds” (priority 1976, dated 1978).

Legend:
Assay type in all cases: in vivo
Pellicularia sasakii [1] = experiment: Rice sheath blight control test, remedial; conditions: inoculation 3 days before application, untreated 34.4cm
Description: (§1) Rice sheath blight control test
(§2) Rice Plants (variety: Kinmaze) are planted in earthen pots 9 cm in diameter, 3 stocks per pot. Seedlings 80 days after potting are tested and 6 pots each of them are grouped.
(§3) Pathogenic fungi Pellicularia sasakii is cultivated on a plate of potato infusion-sugar-agar at 30°C for 48 hours, and its agar disc 10mm in diameter is cut out from a peripheral colony. The disc is inserted into the inside space of the leaf sheath near the soil surface, a disc per stem. The pots are kept in a PVC shelter at the temperature of 32°-25° C and the relative humidity of 100-70%. Inoculation is carried out immediately after the applied drug has been air-dried in the prophylactic test, and 3 days before application in the remedial test.
(§4) 10 days after application of the drug, the length of each stem from ground level to the upper edge of the lesion is directly measured.

Pellicularia sasakii [2] = experiment: Rice sheath blight control test, preventive (prophylactic); conditions: 10 days after application, untreated 34.4cm
Description: as §1, §2, §3, §4

Rhyzoctonia solani = experiment: Cucumber damping-off control test; conditions: 14 days after sowing
Description: Cucumber damping-off control test
Rhyzoctonia solani is cultured on barley medium at 28° C for 5 days. A field soil sample is packed into clay pots 9 cm in diameter, which are then sterilized with steam. The chaff inoculum is evenly worked into the cover soil of each pot to the depth of about 3 cm, at the rate of 2g./pot. The pots are kept in an incubation chamber at 28° C for 4 days and, then, transferred to a greenhouse.
As per Experiment 1, the drug is sprayed onto the soil surface at the rate of 30 ml./6 pots/group.
Healthy seeds of cucumber (variety: Yonyo) are sown by burial in the pots immediately after treatment, at the rate of 10 seeds/pot. The pots are then placed in a greenhouse at 32°-28° C.
14 days after sowing, the results are evaluated against the following coefficients of lesion and the degrees of damage are calculated.
Coefficients of lesion (I)
0.5 : Root hairs alone are slightly affected.
1 : Aerial portions near soil surface and roots affected.
2 : Early stage of damping-off.
3 : Affected at germination; growth inhibited.
Degree of damage (%) =(Σ(nI))/3 × N × 100 wherein n means the number of samples corresponding to each coefficient of lesion and N means the total number of plants.

Molecule | Remedial effect (percent of the average length of lesion/stem per control untreated) (Pellicularia sasakii [1]; 3 ppm) [%] | Remedial effect (percent of the average length of lesion/stem per control untreated) (Pellicularia sasakii [1]; 10 ppm) [%] | Remedial effect (percent of the average length of lesion/stem per control untreated) (Pellicularia sasakii [1]; 30 ppm) [%] | Remedial effect (percent of the average length of lesion/stem per control untreated) (Pellicularia sasakii [1]; 100 ppm) [%] | Remedial effect (percent of the average length of lesion/stem per control untreated) (Pellicularia sasakii [1]; 300 ppm) [%] | Preventive effect (percent of the average length of lesion/stem per control untreated) (Pellicularia sasakii [2]; 3 ppm) [%] | Preventive effect (percent of the average length of lesion/stem per control untreated) (Pellicularia sasakii [2]; 10 ppm) [%] | Preventive effect (percent of the average length of lesion/stem per control untreated) (Pellicularia sasakii [2]; 30 ppm) [%] | Preventive effect (percent of the average length of lesion/stem per control untreated) (Pellicularia sasakii [2]; 100 ppm) [%] | Preventive effect (percent of the average length of lesion/stem per control untreated) (Pellicularia sasakii [2]; 300 ppm) [%] | Degree of damage (Rhyzoctonia solani; 5 ppm) [%] | Degree of damage (Rhyzoctonia solani; 20 ppm) [%] | Degree of damage (Rhyzoctonia solani; 80 ppm) [%]
Methyl arsonic acid ammonium complex salt [MAFA, reference compound] | 89 | 30 | 15 | 13 | 10 | 76 | 51 | 0 | 0 | 0 | – | – | –
O=[N+]([O-])c1c(Cl)c(Cl)c(Cl)c(Cl)c1Cl [Pentachloronitrobenzene, reference compound] | – | – | – | – | – | – | – | – | – | – | 100 | 100 | 100
